Values joined by “and” are separate entries in the source; they are usually repeats but may differ in a detail not shown here. Identical values can stand only once. Inconclusive results and toxic doses are left out. No stated cut-off is given here; in the data, active means T/C of 150% or more; inactive means T/C below 125%.
System: L1210 leukemia ip in BDF1 mice, survival T/C
Assay: NCI In Vivo Anticancer Drug Screen. Data for tumor model L1210 Leukemia (intraperitoneal) in B6D2F1 (BDF1) mice
Settings: endpoint: mean survival time, higher = longer survival
Summary of the method: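 Tumor was transplanted into mice, which were then dosed with test compound or vehicle alone. Survival was recorded for each group, and the treated figure was expressed relative to the control figure.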

[1] = dose: 25.0 mg/kg/injection, schedule: Q04DX003 (ip), vehicle: Klucel (hydroxypropylcellulose) (HPC)
[2] = dose: 100.0 mg/kg/injection, schedule: Q04DX003 (ip), vehicle: Klucel (hydroxypropylcellulose) (HPC)
[3] = dose: 200.0 mg/kg/injection, schedule: Q04DX003 (ip), vehicle: Klucel (hydroxypropylcellulose) (HPC)
[4] = dose: 400.0 mg/kg/injection, schedule: Q04DX003 (ip), vehicle: Klucel (hydroxypropylcellulose) (HPC)

Measured: T/C

Cc1cc(Cl)ccc1NS(=O)(=O)c1cccc([N+](=O)[O-])c1
inactive: dose: 100.0 mg/kg/injection, schedule: Q01DX009 (ip), vehicle: saline with Tween-80 90 % of control | dose: 200.0 mg/kg/injection, schedule: Q01DX009 (ip), vehicle: saline with Tween-80 90 % of control | dose: 400.0 mg/kg/injection, schedule: Q01DX009 (ip), vehicle: saline with Tween-80 87 % of control

CC(C)(C)N1OC2(CCCCC2)n2c(=O)c3ccccc3c(=O)n2C1c1ccccc1 (stereo not drawn)
inactive: dose: 100.0 mg/kg/injection, schedule: Q04DX002 (ip), vehicle: saline with Tween-80 97 % of control | dose: 200.0 mg/kg/injection, schedule: Q04DX002 (ip), vehicle: saline with Tween-80 90 % of control | dose: 400.0 mg/kg/injection, schedule: Q04DX002 (ip), vehicle: saline with Tween-80 108 % of control

Cc1ccc(/C=C/[N+](=O)[O-])cc1
inactive: dose: 6.25 mg/kg/injection, schedule: Q01DX009 (ip), vehicle: saline sonified 100 % of control | dose: 6.25 mg/kg/injection, schedule: Q04DX003 (ip), vehicle: Klucel (hydroxypropylcellulose) (HPC) 97 % of control | dose: 12.5 mg/kg/injection, schedule: Q01DX009 (ip), vehicle: saline sonified 101 % of control | dose: 12.5 mg/kg/injection, schedule: Q04DX003 (ip), vehicle: Klucel (hydroxypropylcellulose) (HPC) 97 % of control | dose: 25.0 mg/kg/injection, schedule: Q01DX009 (ip), vehicle: saline sonified 101 % of control | [1] 93 % of control

CCCCCCOB(OCCCCCC)OCCCCCC
inactive: dose: 50.0 mg/kg/injection, schedule: Q01DX001 (ip), vehicle: carboxymethylcellulose (CMC) 107 % of control | dose: 88.0 mg/kg/injection, schedule: Q01DX001 (ip), vehicle: carboxymethylcellulose (CMC) 97 % of control and 98 % of control | dose: 100.0 mg/kg/injection, schedule: Q01DX001 (ip), vehicle: carboxymethylcellulose (CMC) 102 % of control | dose: 133.0 mg/kg/injection, schedule: Q01DX001 (ip), vehicle: carboxymethylcellulose (CMC) 96 % of control and 103 % of control | dose: 300.0 mg/kg/injection, schedule: Q01DX001 (ip), vehicle: carboxymethylcellulose (CMC) 93 % of control and 94 % of control | dose: 400.0 mg/kg/injection, schedule: Q01DX001 (ip), vehicle: carboxymethylcellulose (CMC) 105 % of control

CN(C)/N=[N+](\[O-])c1ccccc1
inactive: dose: 6.25 mg/kg/injection, schedule: Q01DX009 (ip), vehicle: Klucel (hydroxypropylcellulose) (HPC) 103 % of control | dose: 12.5 mg/kg/injection, schedule: Q01DX009 (ip), vehicle: Klucel (hydroxypropylcellulose) (HPC) 100 % of control and 105 % of control | dose: 25.0 mg/kg/injection, schedule: Q01DX009 (ip), vehicle: Klucel (hydroxypropylcellulose) (HPC) 97 % of control and 104 % of control | [1] 96 % of control | dose: 50.0 mg/kg/injection, schedule: Q01DX009 (ip), vehicle: Klucel (hydroxypropylcellulose) (HPC) 100 % of control and 105 % of control | dose: 50.0 mg/kg/injection, schedule: Q04DX003 (ip), vehicle: Klucel (hydroxypropylcellulose) (HPC) 95 % of control and 108 % of control | [2] 95 % of control and 105 % of control

COc1ccc(C23CCCC(=O)C2C2C(=O)CCCC23c2ccc(OC)cc2)cc1 (stereo not drawn)
inactive: dose: 100.0 mg/kg/injection, schedule: Q01DX001 (ip), vehicle: Klucel (hydroxypropylcellulose) (HPC) 100 % of control | [2] 100 % of control | dose: 200.0 mg/kg/injection, schedule: Q01DX001 (ip), vehicle: Klucel (hydroxypropylcellulose) (HPC) 97 % of control | [3] 101 % of control | dose: 400.0 mg/kg/injection, schedule: Q01DX001 (ip), vehicle: Klucel (hydroxypropylcellulose) (HPC) 100 % of control | [4] 95 % of control

O=C(/C=C\c1ccc2c(c1)OCO2)/C=C/c1ccc2c(c1)OCO2
inactive: dose: 100.0 mg/kg/injection, schedule: Q01DX009 (ip), vehicle: Klucel (hydroxypropylcellulose) (HPC) 97 % of control | [2] 92 % of control | dose: 100.0 mg/kg/injection, schedule: Q04DX003 (ip), vehicle: saline with Tween-80 97 % of control | dose: 200.0 mg/kg/injection, schedule: Q01DX009 (ip), vehicle: Klucel (hydroxypropylcellulose) (HPC) 88 % of control | [3] 101 % of control | dose: 200.0 mg/kg/injection, schedule: Q04DX003 (ip), vehicle: saline with Tween-80 94 % of control | dose: 400.0 mg/kg/injection, schedule: Q01DX009 (ip), vehicle: Klucel (hydroxypropylcellulose) (HPC) 87 % of control | [4] 94 % of control | dose: 400.0 mg/kg/injection, schedule: Q04DX003 (ip), vehicle: saline with Tween-80 90 % of control

Cc1cccc2cc3cccc(C)[n+]3cc12
inactive: dose: 5.0 mg/kg/injection, schedule: Q01DX001 (ip), vehicle: other 100 % of control | dose: 10.0 mg/kg/injection, schedule: Q01DX001 (ip), vehicle: other 97 % of control | dose: 20.0 mg/kg/injection, schedule: Q01DX001 (ip), vehicle: other 100 % of control

Source: PubChem BioAssay AID248 (DTP/NCI, 2004)
